Data: patent publication US10882844B2, “Compounds useful as immunomodulators” (Bristol-Myers Squibb Company, priority 2016, dated 2021)

Target: PD-1/PD-L1 (Homo sapiens (Human), UniProt Q9NZQ7)
Assay: PD-1/PD-L1 Homogenous Time-Resolved Fluorescence (HTRF) binding assay
Settings: PD-1-Ig / PD-L1-His HTRF; value given as number; read-out: Range or IC50
Excerpt: The ability of the compounds of formula (I) to bind to PD-L1 was investigated using a PD-1/PD-L1 Homogenous Time-Resolved Fluorescence (HTRF) binding assay.
Homogenous Time-Resolved Fluorescence (HTRF) binding assay.
The interaction of PD-1 and PD-L1 can be assessed using soluble, purified preparations of the extracellular domains of the two proteins. The PD-1 and PD-L1 protein extracellular domains were expressed as fusion proteins with detection tags, for PD-1, the tag was the Fc portion of Immunoglobulin (PD-1-Ig) and for PD-L1 it was the 6 histidine motif (PD-L1-His). All binding studies were performed in an HTRF assay buffer consisting of dPBS supplemented with 0.1% […] bovine serum albumin and 0.05% (v/v) Tween-20. For the h/PD-L1-His binding assay, inhibitors were pre-incubated with PD-L1-His (10 nM final) for 15 m in 4 μl of assay buffer, followed by addition of PD-1-Ig (20 nM final) in 1 μl of assay buffer and further incubation for 15 m. HTRF detection was achieved using europium crypate-labeled anti-Ig (1 nM final) and allophycocyanin (APC) labeled anti-His (20 nM final). Antibodies were diluted in HTRF detection buffer and 5 μl was dispensed on top of the binding reaction. The reaction mixture was allowed to equilibrate for 30 minutes and the resulting signal (665 nm/620 nm ratio) was obtained using an EnVision fluorometer. Additional binding assays were established between the human proteins PD-1-Ig/PD-L2-His (20 & 5 nM, respectively) and CD8O-His/PD-L1-Ig (100 & 10 nM, respectively).
Recombinant Proteins: Human PD-1 (25-167) with a C-terminal human Fc domain of immunoglobulin G (Ig) epitope tag [hPD-1 (25-167)-3S-IG] and human PD-L1 (18-239) with a C-terminal His epitope tag [hPD-L1(18-239)-TVMV-His] were expressed in HEK293T cells and purified sequentially by ProteinA affinity chromatography and size exclusion chromatography. Human PD-L2-His and CD80-His was obtained through commercial sources.
The table below lists the IC50 values for representative examples of this disclosure measured in the PD-1/PD-L1 Homogenous Time-Resolved Fluorescence (HTRF) binding assay. Ranges are as follows: A=0.18 nM-0.99 nM; B=1.0 nM-5.0 nM; C=5.01 nM-10.1 nM; D=10.2 nM-200 nM; E=201 nM→10 uM

Chain of PD-1/PD-L1 (Q9NZQ7 other isoform, or with tags, fused parts or gaps): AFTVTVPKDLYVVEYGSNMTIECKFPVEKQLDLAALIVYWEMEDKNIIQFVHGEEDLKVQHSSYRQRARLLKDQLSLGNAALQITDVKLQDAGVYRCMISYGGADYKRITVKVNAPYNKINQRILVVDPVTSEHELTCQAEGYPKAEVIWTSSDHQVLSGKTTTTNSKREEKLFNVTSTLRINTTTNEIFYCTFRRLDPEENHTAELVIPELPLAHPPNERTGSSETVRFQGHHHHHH

Row | IC50 [nM] | SMILES
1 | 3.8 | Cc1c(COc2cc(OCc3cncc(C#N)c3)c(CN(C)C(CO)CO)cc2Cl)cccc1-c1ccc2oc(N3C[C@@H]4C[C@H]3CN4C)nc2c1 [Example 2001]

Same assay, conditions: PD-1-Ig / PD-L1-His HTRF; value given as range class; read-out: Range or IC50

Row | SMILES | IC50 [nM]
2 | Cc1c(COc2cc(OCc3cncc(C#N)c3)c(CN[C@@H](CO)C(=O)O)cc2Cl)cccc1-c1ccc2oc(N3CCN(C)CC3)nc2c1 [Example 2010, (5-chloro-2-((5-cyanopyridin-3-yl)methoxy)-4-((2-methyl-3-(2-(4-methylpiperazin-1-yl)benzo[d]oxazol-5-yl)benzyl)oxy)benzyl)-L-serine] | 1 to 5
3 | Cc1c(COc2cc(OCc3cncc(C#N)c3)c(CN3CCCC[C@H]3C(=O)O)cc2Cl)cccc1-c1ccc2ncc(C3=CC4CCC(C3)N4)nc2c1 (stereo partly drawn) [Example 1029, (2S)-1-(4-((3-(3-(8-Azabicyclo[3.2.1]oct-2-en-3-yl)quinoxalin-6-yl)-2-methylbenzyl)-oxy)-5-chloro-2-((5-cyanopyridin-3-yl)methoxy)benzyl)piperidine-2-carboxylic acid] | 1 to 5
4 | Cc1c(COc2cc(OCc3cncc(C#N)c3)c(CO)cc2Cl)cccc1-c1ccc2oc(C3CCN(C)CC3)nc2c1 [Example 1021, 5-((4-chloro-2-(hydroxymethyl)-5-((2-methyl-3-(2-(1-methylpiperidin-4-yl)benzo[d]oxazol-5-yl)benzyl)oxy)phenoxy)methyl)nicotinonitrile] | 5.01 to 10.1
5 | Cc1c(COc2cc(OCc3cncc(C#N)c3)c(CN(C)C(CO)CO)cc2Cl)cccc1-c1ccc2oc(N3CCN(C)CC3)nc2c1 [Example 2014] | 1 to 5

The remaining lines, values ahead:

Row | IC50 [nM] | SMILES
6 | 1 to 5 | Cc1c(COc2cc(OCc3cncc(C#N)c3)c(CN3CCCC[C@H]3C(=O)O)cc2Cl)cccc1-c1ccc2oc(-c3ccncc3)nc2c1 [Example 1007, (S)-1-(5-chloro-2-((5-cyanopyridin-3-yl)methoxy)-4-((2-methyl-3-(2-(pyridin-4-yl)benzo[d]oxazol-5-yl)benzyl)oxy)benzyl)piperidine-2-carboxylic Acid]
7 | 0.18 to 0.99 | Cc1c(COc2cc(OCc3cncc(C#N)c3)c(CN(C)C(C)(CO)CO)cc2Cl)cccc1-c1ccc2oc(N3CCN(C)CC3)nc2c1 [Example 2015]
8 | 5.01 to 10.1 | Cc1c(COc2cc(OCc3cncc(C#N)c3)c(CN3CCCC[C@H]3C(=O)O)cc2Cl)cccc1-c1ccc2ncc(N3CCN(C)CC3)nc2c1 [Example 1031, (S)-1-(5-chloro-2-((5-cyanopyridin-3-yl)methoxy)-4-((2-methyl-3-(3-(4-methylpiperazin-1-yl)quinoxalin-6-yl)benzyl)oxy)benzyl)piperidine-2-carboxylic Acid]
9 | 1 to 5 | Cc1c(COc2cc(OCc3cncc(C#N)c3)c(CN3CCCC[C@H]3C(=O)O)cc2Cl)cccc1-c1ccc2oc(C3CC4CCC(C3)O4)nc2c1 (stereo partly drawn) [Example 1018, (2S)-1-(4-((3-(2-(8-oxabicyclo[3.2.1]octan-3-yl)benzo[d]oxazol-5-yl)-2-methylbenzyl)oxy)-5-chloro-2-((5-cyanopyridin-3-yl)methoxy)benzyl)piperidine-2-carboxylic Acid]
10 | 0.18 to 0.99 | Cc1c(COc2cc(OCc3cncc(C#N)c3)c(CN3CCCC[C@H]3C(=O)O)cc2Cl)cccc1-c1ccc2oc(C3CCC(C(=O)O)CC3)nc2c1 (single isomer, unassigned) [Example 1025]
11 | 1 to 5 | Cc1c(COc2cc(OCc3cncc(C#N)c3)c(CN[C@@](C)(CO)C(=O)O)cc2Cl)cccc1-c1ccc2oc(N3CCN(C)CC3)nc2c1 [Example 2011, (S)-2-((5-chloro-2-((5-cyanopyridin-3-yl)methoxy)-4-((2-methyl-3-(2-(4-methylpiperazin-1-yl)benzo[d]oxazol-5-yl)benzyl)oxy)benzyl)amino)-3-hydroxy-2-methylpropanoic Acid]
12 | 0.18 to 0.99 | Cc1c(COc2cc(OCc3cncc(C#N)c3)c(CN[C@](C)(CO)C(=O)O)cc2Cl)cccc1-c1ccc2oc(C3CCN(C)CC3)nc2c1 [Example 1020, (R)-2-((5-chloro-2-((5-cyanopyridin-3-yl)methoxy)-4-((2-methyl-3-(2-(1-methylpiperidin-4-yl)benzo[d]oxazol-5-yl)benzyl)oxy)benzyl)amino)-3-hydroxy-2-methylpropanoic Acid]
